Where two headings read alike, the source gives them in different places.
Tests used:
[1] = tested on: differentiated Caco-2 cells; settings: cited from earlier work
Procedure: From a physiological point of view, the dynamic equilibrium between the transport and degradation of bioactive peptides is crucially important. […] Indeed, the transport is more efficient and its degradation less extensive when P5 is incubated in the presence of peptides P3 and P7. It is important to note, however, that P5 and P7 have completely different behaviors, since the transport rate of P5 tested alone is 1.8 ...

[2] = tested on: HepG2 cells; test: Fluorescent LDL uptake by HepG2 cells; format: cell-based, human; settings: PCSK9 alone 4 µg/mL, 2 h; mean ± SD
Procedure: HepG2 cells (3 × 10^4/well) were seeded in 96-well plates and kept in complete growth medium for 2 days before treatment. The third day, cells were washed with PBS and then starved overnight (O/N) in DMEM without FBS and antibiotics. After starvation, they were treated with 4.0 μg/mL PCSK9 and 4.0 μg/mL PCSK9 + P5 and P5-met peptides (50.0 µM), and vehicle (H2O) for 2 h with at 37 °C under 5% CO2 atmosphere. At the end of the treatment, the culture medium was replaced with 50 μL/well LDL-DyLight™ 550 working solution (Cayman Chemical Company, Ann Arbor, MI, USA) prepared in DMEM without FBS and antibiotics. The cells were additionally incubated for 2 h at 37 °C and then the culture medium was aspirated and replaced with PBS (100 μL/well). The degree of LDL uptake was measured using the Synergy H1 fluorescent plate reader (Winooski, VT, USA) (excitation and emission wavelengths 540 and 570 nm, respectively). Fluorescent LDL-uptake was finally assessed following optimized protocol.

[3] = tested on: LDLR on HepG2 cell surface; test: In-cell Western (ICW) assay, LDLR localized on HepG2 cell surface; format: cell-based, human; settings: PCSK9 alone 4 µg/mL, 2 h, mean ± SD
Procedure: For the experiments, a total of 3 × 10^4 HepG2 cells/well were seeded in 96-well plates. The following day, cells were washed with PBS and then starved overnight (O/N) in DMEM without FBS and antibiotics. After starvation, HepG2 cells were treated with 4.0 μg/mL PCSK9-WT and 4.0 μg/mL PCSK9 + peptides P5 and/or P5-met (50 µM) and vehicle (H2O) for 2 h at 37 °C under 5% CO2 atmosphere. Subsequently, they were fixed in 4% paraformaldehyde for 20 min at room temperature (RT). Cells were washed 5 times with 100 µL of PBS/well (each wash was for 5 min at RT) and the endogenous peroxides activity quenched adding 3% H2O2 for 20 min at RT. Non-specific sites were blocked with 100 µL/well of 5% bovine serum albumin (BSA, Sigma) in PBS for 1.5 h at RT. LDLR primary antibody solution (1:3000 in 5% BSA in PBS, 25 µL/well) was incubated O/N at +4 °C. Subsequently, the primary antibody solution was discarded and each sample was washed 5 times with 100 µL/well of PBS (each wash was for 5 min at RT). Goat anti-rabbit Ig-HRP secondary antibody solution (Santa Cruz) (1:6000 in 5% BSA in PBS, 50 µL/well), was added and incubated 1 h at RT. The secondary antibody solution was washed 5 times with 100 µL/well of PBS (each wash for 5 min at RT). Freshly prepared TMB substrate (Pierce, 100 µL/well) was added and the plate was incubated at RT until desired color was developed. The reaction was stopped with 2 M H2SO4 and then the absorbance at 450 nm was measured using the microplate reader Synergy H1 (Winooski, VT, USA). After the read, cells were stained by adding 1× Janus Green stain, incubating for 5 min at RT. The dye was removed and the sample washed 5 times with water. Afterward 100 µL 0.5 M HCl for well were added and incubated for 10 min. After 10 seconds shaking, the OD at 595 nm was measured using the microplate reader Synergy H1 (Winooski, VT, USA).

| Substance | Transport rate across Caco-2 monolayer ([1]; in mixture) | Transport rate across Caco-2 monolayer ([1]; tested alone) | Reduction of ability of HepG2 cells to uptake fluorescent LDL versus untreated cells [2] | Decrease of LDLR protein levels on HepG2 cell surface versus the control cells [3] |
| --- | --- | --- | --- | --- |
| LTFPGSAED [Peptide P7, lupin peptide used in mixture with P5 in the transport experiments] | 1.98 ± 0.21 ng/(mL × min) | 4.2 ± 0.6 ng/(mL × min) |  |  |
| PCSK9: proprotein convertase subtilisin/kexin type-9 protein added to HepG2 cells at 4.0 μg/mL |  |  | 43.5 ± 9.7% | 24.7 ± 1.9% |

Reference: article PMC8000724, “Trans-Epithelial Transport, Metabolism, and Biological Activity Assessment of the Multi-Target Lupin Peptide [sequence] (P5) and Its Metabolite [sequence] (P5-Met)” (Nutrients, 2021)
